PubChem BioAssay (NCI)
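48-hour exposure; five concentrations; linearly interpolated endpoints. At the GI50, growth is halved. TGI: total growth inhibition.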

How the values were obtained:
Assay in all cases: inhibition of tumour cell growth, NCI panel, 48 h
[1] = test system: RPMI-8226 leukemia
[2] = test system: SF-539 CNS
[3] = test system: NCI-H226 lung
[4] = test system: CCRF-CEM leukemia
[5] = test system: U251 CNS
[6] = test system: HOP-92 NSCLC
[7] = test system: SK-MEL-5 melanoma
[8] = test system: MDA-MB-435
[9] = test system: MOLT-4 leukemia
[10] = test system: OVCAR-4 ovarian
[11] = test system: COLO 205 colon
[12] = test system: A549 NSCLC
[13] = test system: 786-0 renal
[14] = test system: UACC-257 melanoma
[15] = test system: MALME-3M melanoma
[16] = test system: RXF 393 renal
[17] = test system: SF-295 CNS
[18] = test system: M14 melanoma
[19] = test system: HCC-2998 colon
[20] = test system: SF-268 CNS
[21] = test system: NCI-H460 lung
[22] = test system: UACC-62 melanoma
[23] = test system: NCI-H522 lung
[24] = test system: SNB-19 CNS
[25] = test system: HCT-15 colon
[26] = test system: TK-10 renal
[27] = test system: MDA-MB-468 breast
[28] = test system: EKVX NSCLC
[29] = test system: SK-MEL-28 melanoma
[30] = test system: BT-549 breast
[31] = test system: SN12C renal
[32] = test system: SK-MEL-2 melanoma
[33] = test system: DU-145 prostate
[34] = test system: OVCAR-8 ovarian
[35] = test system: OVCAR-3 ovarian
[36] = test system: OVCAR-5 ovarian
[37] = test system: SK-OV-3 ovarian
[38] = test system: SNB-75 CNS
[39] = test system: HS 578T breast
[40] = test system: K-562 leukemia
[41] = test system: ACHN renal
[42] = test system: SW-620 colon
[43] = test system: A498 renal
[44] = test system: LOX IMVI melanoma
[45] = test system: IGROV1 ovarian
[46] = test system: HOP-62 NSCLC
[47] = test system: MDA-MB-231 breast
[48] = test system: CAKI-1 renal
[49] = test system: HCT-116 colon
[50] = test system: NCI-H23 lung
[51] = test system: NCI/ADR-RES ovarian
[52] = test system: KM12 colon

## Cc1cccc(-c2nc(Nc3cccc(S(N)(=O)=O)c3)c3ccccc3n2)c1
[1]
  GI50: 7.66 µM
  TGI: > 100 µM
[2]
  GI50: 6.2 µM
  TGI: 25.1 µM
[3]
  GI50: > 100 µM
  TGI: > 100 µM
[4]
  GI50: 4.77 µM
  TGI: > 100 µM
[5]
  GI50: 11.6 µM
  TGI: > 100 µM
[6]
  GI50: 34.9 µM
  TGI: > 100 µM
[7]
  GI50: > 100 µM
  TGI: > 100 µM
[8]
  GI50: > 100 µM
  TGI: > 100 µM
[9]
  GI50: 4.1 µM
  TGI: > 100 µM
[10]
  GI50: > 100 µM
  TGI: > 100 µM
[11]
  GI50: > 100 µM
  TGI: > 100 µM
[12]
  GI50: 10.9 µM
  TGI: > 100 µM
[13]
  GI50: 8.53 µM
  TGI: > 100 µM
[14]
  GI50: > 100 µM
  TGI: > 100 µM
[15]
  GI50: > 100 µM
  TGI: > 100 µM
[16]
  GI50: 6.23 µM
  TGI: > 100 µM
[17]
  GI50: 4.43 µM
  TGI: > 100 µM
[18]
  GI50: > 100 µM
  TGI: > 100 µM
[19]
  GI50: 4.98 µM
  TGI: > 100 µM
[20]
  GI50: > 100 µM
  TGI: > 100 µM
[21]
  GI50: 7.2 µM
  TGI: 43 µM
[22]
  GI50: > 100 µM
  TGI: > 100 µM
[23]
  GI50: 5.69 µM
  TGI: > 100 µM
[24]
  GI50: > 100 µM
  TGI: > 100 µM
[25]
  GI50: 3.53 µM
  TGI: > 100 µM
[26]
  GI50: > 100 µM
  TGI: > 100 µM
[27]
  GI50: 5.57 µM
  TGI: > 100 µM
[28]
  GI50: > 100 µM
  TGI: > 100 µM
[29]
  GI50: > 100 µM
  TGI: > 100 µM
[30]
  GI50: > 100 µM
  TGI: > 100 µM
[31]
  GI50: > 100 µM
  TGI: > 100 µM
[32]
  GI50: > 100 µM
  TGI: > 100 µM
[33]
  GI50: > 100 µM
  TGI: > 100 µM
[34]
  GI50: 9.82 µM
  TGI: > 100 µM
[35]
  GI50: 9.42 µM
  TGI: > 100 µM
[36]
  GI50: > 100 µM
  TGI: > 100 µM
[37]
  GI50: > 100 µM
  TGI: > 100 µM
[38]
  GI50: > 100 µM
  TGI: > 100 µM
[39]
  GI50: > 100 µM
  TGI: > 100 µM
[40]
  GI50: 3.23 µM
  TGI: > 100 µM
[41]
  GI50: 7.93 µM
  TGI: > 100 µM
[42]
  GI50: 17.4 µM
  TGI: > 100 µM
[43]
  GI50: > 100 µM
  TGI: > 100 µM
[44]
  GI50: 4.76 µM
  TGI: > 100 µM
[45]
  GI50: > 100 µM
  TGI: > 100 µM
[46]
  GI50: > 100 µM
  TGI: > 100 µM
[47]
  GI50: 6.52 µM
  TGI: > 100 µM
[48]
  GI50: 13.8 µM
  TGI: > 100 µM
[49]
  GI50: 8.09 µM
  TGI: > 100 µM
[50]
  GI50: 30.6 µM
  TGI: > 100 µM
[51]
  GI50: 7.08 µM
  TGI: > 100 µM
[52]
  GI50: 3.62 µM
  TGI: > 100 µM
